Reference: PubChem BioAssay AID1963850 (Molecular Pharmacology Branch, DTP, NCI, 2024)

Test system: 192522-019-R-J2-PDC complex tumor spheroid viability
Test: Anticancer human tumor 192522-019-R-J2-PDC patient-derived colon adenocarcinoma cell line growth inhibition [POLQ]
Conditions: for IC50: curve of first compound; for viability, T/C: stronger effect = lower value
In short: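 Growth inhibition in 3D: complex spheroids (tumor PDC, HUVEC, MSC) treated with POLQ inhibitor combinations; where Cmax unknown, highest tested concentration 10 microM, except SN-38 at 1 microM.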

[1] = second compound 0.0316 µM, first compound 0.0316 µM
[2] = second compound 0.0316 µM, first compound 0.1 µM
[3] = second compound 0.0316 µM, first compound 0.316 µM
[4] = second compound 0.0316 µM, first compound 1 µM
[5] = second compound 0.1 µM, first compound 0.0316 µM
[6] = second compound 0.1 µM, first compound 0.1 µM
[7] = second compound 0.1 µM, first compound 0.316 µM
[8] = second compound 0.1 µM, first compound 1 µM
[9] = second compound 0.316 µM, first compound 0.0316 µM
[10] = second compound 0.316 µM, first compound 0.1 µM
[11] = second compound 0.316 µM, first compound 0.316 µM
[12] = second compound 0.316 µM, first compound 1 µM
[13] = second compound 1 µM, first compound 0.0316 µM
[14] = second compound 1 µM, first compound 0.1 µM
[15] = second compound 1 µM, first compound 0.316 µM
[16] = second compound 1 µM, first compound 1 µM
[17] = second compound 3.16 µM, first compound 0.0316 µM
[18] = second compound 3.16 µM, first compound 0.1 µM
[19] = second compound 3.16 µM, first compound 0.316 µM
[20] = second compound 3.16 µM, first compound 1 µM
[21] = second compound 10 µM, first compound 0.0316 µM
[22] = second compound 10 µM, first compound 0.1 µM
[23] = second compound 10 µM, first compound 0.316 µM
[24] = second compound 10 µM, first compound 1 µM
[25] = second compound 0.0316 µM, first compound 3.16 µM
[26] = second compound 0.0316 µM, first compound 10 µM
[27] = second compound 0.1 µM, first compound 3.16 µM
[28] = second compound 0.1 µM, first compound 10 µM
[29] = second compound 0.316 µM, first compound 3.16 µM
[30] = second compound 0.316 µM, first compound 10 µM
[31] = second compound 1 µM, first compound 3.16 µM
[32] = second compound 1 µM, first compound 10 µM
[33] = second compound 3.16 µM, first compound 3.16 µM
[34] = second compound 3.16 µM, first compound 10 µM
[35] = second compound 10 µM, first compound 3.16 µM
[36] = second compound 10 µM, first compound 10 µM
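Also: spheroids exposed to drugs for seven days before reading.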
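For viability, T/C in this document: 100% = DMSO vehicle control viability in luminescence.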

CCc1c2c(nc3ccc(O)cc13)-c1cc3c(c(=O)n1C2)COC(=O)[C@]3(O)CC + Nc1ccc(C#CCN(C(=O)Cc2ncc(C(F)(F)F)cc2C(F)(F)F)c2ccc(F)cc2)nn1
IC50 (second compound 0.0316 µM): 0.232 µM | IC50 (second compound 0.1 µM): 0.176 µM | IC50 (second compound 0.316 µM): 0.204 µM | IC50 (second compound 1 µM): 0.129 µM | IC50 (second compound 3.16 µM): 0.16 µM | IC50 (second compound 10 µM): 0.111 µM | viability, T/C (second compound 0.0316 µM, first compound 0.00316 µM): 92.1% | viability, T/C (second compound 0.0316 µM, first compound 0.01 µM): 75.4% | viability, T/C [1]: 70.3% | viability, T/C [2]: 62.1% | viability, T/C [3]: 44.2% | viability, T/C [4]: 35.7% | viability, T/C (second compound 0.1 µM, first compound 0.00316 µM): 94.8% | viability, T/C (second compound 0.1 µM, first compound 0.01 µM): 77.6% | viability, T/C [5]: 78.6% | viability, T/C [6]: 60% | viability, T/C [7]: 38.1% | viability, T/C [8]: 31% | viability, T/C (second compound 0.316 µM, first compound 0.00316 µM): 99% | viability, T/C (second compound 0.316 µM, first compound 0.01 µM): 76.2% | viability, T/C [9]: 78.8% | viability, T/C [10]: 57% | viability, T/C [11]: 43.5% | viability, T/C [12]: 31.9% | viability, T/C (second compound 1 µM, first compound 0.00316 µM): 103% | viability, T/C (second compound 1 µM, first compound 0.01 µM): 71.5% | viability, T/C [13]: 69.8% | viability, T/C [14]: 57.6% | viability, T/C [15]: 36.4% | viability, T/C [16]: 31% | viability, T/C (second compound 3.16 µM, first compound 0.00316 µM): 96.9% | viability, T/C (second compound 3.16 µM, first compound 0.01 µM): 79.8% | viability, T/C [17]: 72.5% | viability, T/C [18]: 56% | viability, T/C [19]: 39.4% | viability, T/C [20]: 36.5% | viability, T/C (second compound 10 µM, first compound 0.00316 µM): 94% | viability, T/C (second compound 10 µM, first compound 0.01 µM): 76.7% | viability, T/C [21]: 71.5% | viability, T/C [22]: 50.6% | viability, T/C [23]: 36.2% | viability, T/C [24]: 34.4%

COc1cc(C2c3cc4c(cc3C(OC3OC5COC(C)OC5C(O)C3O)C3COC(=O)C23)OCO4)cc(OC)c1O (stereo unspecified) + Nc1ccc(C#CCN(C(=O)Cc2ncc(C(F)(F)F)cc2C(F)(F)F)c2ccc(F)cc2)nn1
IC50 (second compound 0.0316 µM): > 10 µM | IC50 (second compound 0.1 µM): > 10 µM | IC50 (second compound 0.316 µM): > 10 µM | IC50 (second compound 1 µM): > 10 µM | IC50 (second compound 3.16 µM): > 10 µM | IC50 (second compound 10 µM): > 10 µM | viability, T/C [1]: 105% | viability, T/C [2]: 98.2% | viability, T/C [3]: 86.9% | viability, T/C [4]: 83.2% | viability, T/C [25]: 68.9% | viability, T/C [26]: 77.8% | viability, T/C [5]: 110% | viability, T/C [6]: 92.2% | viability, T/C [7]: 97.5% | viability, T/C [8]: 93.4% | viability, T/C [27]: 65.4% | viability, T/C [28]: 80.4% | viability, T/C [9]: 106% | viability, T/C [10]: 100% | viability, T/C [11]: 96.4% | viability, T/C [12]: 87% | viability, T/C [29]: 67% | viability, T/C [30]: 80% | viability, T/C [13]: 100% | viability, T/C [14]: 91.9% | viability, T/C [15]: 98.2% | viability, T/C [16]: 85.1% | viability, T/C [31]: 73.9% | viability, T/C [32]: 75% | viability, T/C [17]: 109% | viability, T/C [18]: 96.4% | viability, T/C [19]: 95.9% | viability, T/C [20]: 85.2% | viability, T/C [33]: 72.7% | viability, T/C [34]: 76.1% | viability, T/C [21]: 104% | viability, T/C [22]: 101% | viability, T/C [23]: 96.9% | viability, T/C [24]: 78.6% | viability, T/C [35]: 79.7% | viability, T/C [36]: 72.2%

Nc1ccn(C2OC(CO)C(O)C2(F)F)c(=O)n1 (stereo unspecified) + Nc1ccc(C#CCN(C(=O)Cc2ncc(C(F)(F)F)cc2C(F)(F)F)c2ccc(F)cc2)nn1
IC50 (second compound 0.0316 µM): > 10 µM | IC50 (second compound 0.1 µM): > 10 µM | IC50 (second compound 0.316 µM): > 10 µM | IC50 (second compound 1 µM): > 10 µM | IC50 (second compound 3.16 µM): > 10 µM | IC50 (second compound 10 µM): > 10 µM | viability, T/C [1]: 100% | viability, T/C [2]: 96.1% | viability, T/C [3]: 80.6% | viability, T/C [4]: 80.3% | viability, T/C [25]: 76.3% | viability, T/C [26]: 69.5% | viability, T/C [5]: 102% | viability, T/C [6]: 94% | viability, T/C [7]: 81% | viability, T/C [8]: 76.8% | viability, T/C [27]: 80.9% | viability, T/C [28]: 66.8% | viability, T/C [9]: 112% | viability, T/C [10]: 90.9% | viability, T/C [11]: 82.2% | viability, T/C [12]: 80.4% | viability, T/C [29]: 83.5% | viability, T/C [30]: 69.7% | viability, T/C [13]: 105% | viability, T/C [14]: 94.7% | viability, T/C [15]: 88.4% | viability, T/C [16]: 82.9% | viability, T/C [31]: 82.4% | viability, T/C [32]: 69.8% | viability, T/C [17]: 104% | viability, T/C [18]: 91.4% | viability, T/C [19]: 85.1% | viability, T/C [20]: 82.3% | viability, T/C [33]: 83.8% | viability, T/C [34]: 71.4% | viability, T/C [21]: 109% | viability, T/C [22]: 98.5% | viability, T/C [23]: 95.3% | viability, T/C [24]: 84.6% | viability, T/C [35]: 84.4% | viability, T/C [36]: 72.2%
